Experimental data from US20220295791A1, “METHODS FOR VIRAL INACTIVATION BY ENVIRONMENTALLY COMPATIBLE DETERGENTS” (Eli Lilly and Company, priority 2019, published 2022).

Key:
XMuLV = type: cell-based, Xenotropic Murine Leukemiavirus
[1] = test system: enveloped viral inactivation; conditions: under a diverse set of experimental conditions; cited from earlier work

With CC(O)CO (centres unmarked) [monopropylene glycol] the XMuLV inactivation (XMuLV) was “not inactivate XMuLV”.

For Triton X-100, the enveloped viral inactivation [1] is listed as “greater than 4 logs”.
